Tests used:
[1] = tested on: db/db mice (idiopathic type II diabetes model mice); test: Efficacy test in db/db mouse model with diabetic nephropathy; assay type: in vivo; settings: for mALB compared to the model control group / urine albumin-to-creatinine ratio (UACR) compared to the model control group / urine amount compared to the model control group: after 4 weeks of administration, in words; for UACR / Urine creatinine / Urine weight / mALB: db/db mice, 15 mg/kg i.g. once daily, Mean±SEM
Text: Test Example 2: Efficacy Test in db/db Mouse Model with Diabetic Nephropathy
Thirty db/db mice (idiopathic type II diabetes model mice) were selected and divided into a model control group, a positive control group, and a treatment group, and 10 db/m mice were selected as a control group.
The mice were given the compounds by oral gavage (i.g) once daily over 4 consecutive weeks. The administration information is shown in detail in Table 2.
Urine albumin was used as a main measure. The data obtained were analyzed statistically using EXCEL and IBM SPSS Statistics 22.0.
All metrology data are expressed as Mean±SEM s. The parameters before and after administration were plotted for the different groups of animals using the software Graph Pad Prism 8. Data were analyzed using the statistical software SPSS 22.0. A Levene's test of homogeneity of variance was performed on the parameters. When the variance was homogenous (P≥0.05), the Dunnett's & LSD method from the one-way analysis of variance (ANOVA) was used to compare the differences between the groups. When the variance was not homogenous (P<0.05), the Mann-Whitney U test (the M-W method) from the Kruskal-Wallis H test (the K-W method) was used to compare the differences between the groups. For animal survival, the log-rank test from the product-limit method (the K-M method) was used to compare the differences between the groups.

[2] = Influencing factor stability study (open containers; light, high temperature, high humidity; 30 days); assay type: physicochemical
[3] = DVS (dynamic vapor sorption) hygroscopicity test; assay type: physicochemical
Text: According to the description of hygroscopicity characteristics and the definitions of hygroscopic weight gains in “General Rule 9103, Guidelines for Hygroscopicity” in the Chinese Pharmacopoeia, Volume IV, 2015 Edition, • deliquescent: sufficient water is absorbed to form a liquid; • extremely hygroscopic: the hygroscopic weight gain is not less than 15%; • hygroscopic: the hygroscopic weight gain is less than 15% but not less than 2%; • slightly hygroscopic: the hygroscopic weight gain is less than 2% but not less than 0.2%; • nonhygroscopic or practically nonhygroscopic: the hygroscopic weight gain is less than 0.2%.
TGA refers to thermogravimetric analysis: The analysis was performed using a METTLER TOLEDO TGA 2 thermogravimetric analyzer, with a temperature ramp rate of 10° C./min, specific temperature ranges shown in corresponding patterns (mostly 30-350° C.), and a nitrogen purge speed of 50 mL/min. DVS refers to dynamic vapor sorption: The analysis was performed using SMS DVS Advantage; at 25° C., the humidity was changed as follows: 50%-95%-0%-95%-50%, in steps of 10% (5% for the last step) (specific humidity ranges are shown in corresponding patterns, and those listed here were used in most cases); the criterion was dm/dt being not greater than 0.002%.

[4] = Long-term/accelerated stability study (sealed in aluminum foil bags, 25° C./60% RH and 40° C./75% RH); assay type: physicochemical; settings: for long-term/accelerated stability (conclusion): storage under long-term accelerated conditions for 6 months
[5] = 4 weeks, ** P<0.01 vs model control group
[6] = open container, 40° C., 1 month
[7] = open container, 40° C., 14 days
[8] = open container, 60° C., 1 month
[9] = open container, 60° C., 14 days
[10] = open container, 75% RH, 1 month
[11] = open container, 75% RH, 14 days
[12] = open container, 92.5% RH, 1 month
[13] = open container, 92.5% RH, 7 days
[14] = open container, 92.5% RH, 14 days
[15] = open container, light exposure (4500 Lux), 1 month
[16] = open container, light exposure (4500 Lux), 7 days
[17] = open container, light exposure (4500 Lux), 14 days
[18] = accelerated experimental conditions, 70% RH
[19] = normal storage conditions, 25° C. and 60% RH
[20] = sealed aluminum foil bag, 25° C.-60% RH, 1 month
[21] = sealed aluminum foil bag, 25° C.-60% RH, 2 months
[22] = sealed aluminum foil bag, 25° C.-60% RH, 3 months
[23] = sealed aluminum foil bag, 25° C.-60% RH, 6 months
[24] = sealed aluminum foil bag, 40° C.-75% RH, 1 month
[25] = sealed aluminum foil bag, 40° C.-75% RH, 2 months
[26] = sealed aluminum foil bag, 40° C.-75% RH, 3 months
[27] = sealed aluminum foil bag, 40° C.-75% RH, 6 months
[28] = 25° C.-60% RH, sealed aluminum foil bag, 1 month
[29] = 25° C.-60% RH, sealed aluminum foil bag, 2 months
[30] = 25° C.-60% RH, sealed aluminum foil bag, 3 months
[31] = 25° C.-60% RH, sealed aluminum foil bag, 6 months
[32] = 40° C.-75% RH, sealed aluminum foil bag, 1 month
[33] = 40° C.-75% RH, sealed aluminum foil bag, 2 months
[34] = 40° C.-75% RH, sealed aluminum foil bag, 3 months
[35] = 40° C.-75% RH, sealed aluminum foil bag, 6 months

[2H]C([2H])([2H])Oc1cc(C#N)ccc1[C@@H]1C(C(N)=O)=C(C)Nc2c(C)cnc(OCC)c21 [Compound 1]
mALB compared to the model control group [1]: tended to be lower | urine albumin-to-creatinine ratio (UACR) compared to the model control group [1]: statistically significantly smaller | urine amount compared to the model control group [1]: tended to be lower | UACR ([1]; 0 weeks): 5039.91 ± 334.27 µg/mg | Urine creatinine ([1]; 0 weeks): 0.40 ± 0.01 μmol/24 h | Urine weight ([1]; 0 weeks): 2.72 ± 0.14 mL | mALB ([1]; 0 weeks): 224.72 ± 13.19 μg/24 h | Urine creatinine ([1]; 4 weeks): 2.23 ± 0.39 μmol/24 h | Urine weight ([1]; 4 weeks): 10.41 ± 2.29 mL | mALB ([1]; 4 weeks): 870.27 ± 189.40 μg/24 h | UACR [1, 5]: 3301.13 ± 330.31** μg/mg

[2H]C([2H])([2H])Oc1cc(C#N)ccc1[C@@H]1C(C(N)=O)=C(C)Nc2c(C)cnc(OCC)c21 [crystal form A]
Crystal form ([2]; 0 days): Crystal form A | Purity ([2]; 0 days): 99.7% | Crystal form [2, 6]: No change | Purity [2, 6]: 99.4% | Crystal form ([2]; open container, 40° C., 7 days): No change | Purity ([2]; open container, 40° C., 7 days): 99.6% | Crystal form [2, 7]: No change | Purity [2, 7]: 99.6% | Crystal form [2, 8]: No change | Purity [2, 8]: 99.4% | Crystal form ([2]; open container, 60° C., 7 days): No change | Purity ([2]; open container, 60° C., 7 days): 99.7% | Crystal form [2, 9]: No change | Purity [2, 9]: 99.6% | Crystal form [2, 10]: No change | Purity [2, 10]: 99.7% | Crystal form ([2]; open container, 75% RH, 7 days): No change | Purity ([2]; open container, 75% RH, 7 days): 99.6% | Crystal form [2, 11]: No change | Purity [2, 11]: 99.7% | Crystal form [2, 12]: No change | Purity [2, 12]: 99.7% | Crystal form [2, 13]: No change | Purity [2, 13]: 99.6% | Crystal form [2, 14]: No change | Purity [2, 14]: 99.7% | Crystal form [2, 15]: No change | Purity [2, 15]: 97.6% | Crystal form [2, 16]: No change | Purity [2, 16]: 99.4% | Crystal form [2, 17]: No change | Purity [2, 17]: 99.1% | stability in the influencing factor experiment (conclusion) ([2]; under other conditions (40° C., 60° C., 75% RH, 92.5% RH)): stable | stability in the influencing factor experiment (conclusion) ([2]; under the light exposure condition): degraded | hygroscopic weight gain [3, 18]: about 0.7% | crystal form re-identified after the DVS test [3]: did not change | hygroscopic weight gain ([3]; extreme conditions, 90% RH): about 1.5% | hygroscopic weight gain [3, 19]: about 0.5% | Crystal form ([4]; 0 days): Crystal form A | Purity ([4]; 0 days): 99.7% | Crystal form [4, 20]: No change | Purity [4, 20]: 99.7% | Crystal form [4, 21]: No change | Purity [4, 21]: 99.7% | Crystal form [4, 22]: No change | Purity [4, 22]: 99.7% | Crystal form [4, 23]: No change | Purity [4, 23]: 99.7% | Crystal form [4, 24]: No change | Purity [4, 24]: 99.7% | Crystal form [4, 25]: No change | Purity [4, 25]: 99.6% | Crystal form [4, 26]: No change | Purity [4, 26]: 99.6% | Crystal form [4, 27]: No change | Purity [4, 27]: 99.5% | long-term/accelerated stability (conclusion) [4]: good physical and chemical stability

O=C(O)/C=C\C(=O)O.[2H]C([2H])([2H])Oc1cc(C#N)ccc1[C@@H]1C(C(N)=O)=C(C)Nc2c(C)cnc(OCC)c21 [crystal form α of maleate]
Crystal form ([2]; 0 days): Crystal form α of maleate | Purity ([2]; 0 days): 99.6% | stability in the influencing factor experiments (conclusion) ([2]; at a high temperature): slightly degraded | Crystal form [2, 6]: No change | Purity [2, 6]: 97.4% | Crystal form ([2]; open container, 40° C., 7 days): No change | Purity ([2]; open container, 40° C., 7 days): 98.9% | Crystal form [2, 7]: No change | Purity [2, 7]: 98.4% | Crystal form [2, 8]: No change | Purity [2, 8]: 92.2% | Crystal form ([2]; open container, 60° C., 7 days): No change | Purity ([2]; open container, 60° C., 7 days): 98.6% | Crystal form [2, 9]: No change | Purity [2, 9]: 97.0% | Crystal form [2, 10]: No change | Purity [2, 10]: 99.8% | Crystal form ([2]; open container, 75% RH, 7 days): No change | Purity ([2]; open container, 75% RH, 7 days): 99.8% | Crystal form [2, 11]: No change | Purity [2, 11]: 99.8% | Crystal form [2, 12]: No change | Purity [2, 12]: 99.8% | Crystal form [2, 13]: No change | Purity [2, 13]: 99.8% | Crystal form [2, 14]: No change | Purity [2, 14]: 99.8% | Crystal form [2, 15]: No change | Purity [2, 15]: 98.2% | Crystal form [2, 16]: No change | Purity [2, 16]: 99.2% | Crystal form [2, 17]: No change | Purity [2, 17]: 98.7% | Purity (%) ([4]; 0 days (initial)): 99.6% | Crystal form [4, 28]: No change | Purity (%) [4, 28]: 99.8% | Crystal form [4, 29]: No change | Purity (%) [4, 29]: 99.8% | Crystal form [4, 30]: No change | Purity (%) [4, 30]: 99.8% | Crystal form [4, 31]: No change | Purity (%) [4, 31]: 99.6% | Crystal form [4, 32]: No change | Purity (%) [4, 32]: 99.6% | Crystal form [4, 33]: No change | Purity (%) [4, 33]: 99.5% | Crystal form [4, 34]: No change | Purity (%) [4, 34]: 99.3% | Crystal form [4, 35]: No change | Purity (%) [4, 35]: 98.8% | long-term/accelerated stability (conclusion) [4]: good physical and chemical stability

Cl.[2H]C([2H])([2H])Oc1cc(C#N)ccc1[C@@H]1C(C(N)=O)=C(C)Nc2c(C)cnc(OCC)c21 [crystal form I of hydrochloride]
hygroscopic weight gain [3, 18]: about 13.7% | crystal form re-identified after the DVS test [3]: did not change | hygroscopic weight gain ([3]; extreme conditions, 90% RH): about 37.5% | hygroscopic weight gain [3, 19]: about 3.6% | Purity (%) ([4]; 0 days (initial)): 99.8% | Crystal form [4, 28]: No change | Purity (%) [4, 28]: 99.3% | Crystal form [4, 29]: No change | Purity (%) [4, 29]: 99.3% | Crystal form [4, 30]: No change | Purity (%) [4, 30]: 99.3% | Crystal form [4, 31]: No change | Purity (%) [4, 31]: 99.3% | Crystal form [4, 32]: No change | Purity (%) [4, 32]: 99.2% | Crystal form [4, 33]: No change | Purity (%) [4, 33]: 98.9% | Crystal form [4, 34]: No change | Purity (%) [4, 34]: 98.8% | Crystal form [4, 35]: No change | Purity (%) [4, 35]: 98.8% | long-term/accelerated stability (conclusion) [4]: good physical and chemical stability

CCOc1ncc(C)c2c1[C@H](c1ccc(C#N)cc1OC)C(C(N)=O)=C(C)N2 [Finerenone, reference compound]
mALB compared to the model control group [1]: tended to be lower | urine albumin-to-creatinine ratio (UACR) compared to the model control group [1]: decreased somewhat but is not significantly different | urine amount compared to the model control group [1]: tended to be lower | UACR ([1]; 0 weeks): 5538.19 ± 342.61 µg/mg | Urine creatinine ([1]; 0 weeks): 0.37 ± 0.02 μmol/24 h | Urine weight ([1]; 0 weeks): 2.86 ± 0.17 mL | mALB ([1]; 0 weeks): 226.68 ± 13.90 μg/24 h | Urine creatinine ([1]; 4 weeks): 2.11 ± 0.44 μmol/24 h | Urine weight ([1]; 4 weeks): 11.96 ± 2.89 mL | mALB ([1]; 4 weeks): 1,013.76 ± 245.40 μg/24 h | UACR [1, 5]: 4294.14 ± 464.95 µg/mg
